Source: patent publication US20140163050A1, “Use of 1H-quinazoline-2,4-diones” (priority 2011, published 2014)
Values after ≈ are worked out from the molar mass of the structure shown. Values joined by “and” are separate entries in the source; they are usually repeats but may differ in a detail not shown here. Identical values can stand only once. “Also recorded” adds a separate entry of the source. Like-named read-outs stand apart in the source and are kept apart here.

Tests used:
patients with PSE = assay: PK-PD relationship, Emax model for SPR; format: in vivo, human; conditions: for EC50: Homo sapiens, read-out: mean (SD) EC50; for EC50 / mean (SD) Emax on the logit scale: mean across the 13 patients; for EC50 (C-7 concentration at 50% of the maximum reduction in SPR) / Emax (maximum reduction in SPR on the logit scale): estimate for each patient (15, 50 or 100 mg)
Experimental: The mean SPR per eye condition and plasma PK concentrations of C-7 50, 100, and 15 mg dose groups is shown in FIG. 3, FIG. 4 and FIG. 5, respectively.
A PK-PD model was developed sequentially for the SPR data. Firstly a pharmacokinetic model was fitted using nonlinear mixed effects methodology in NONMEM version VI to describe the 13 patients with both PK and PD data. A 3 compartment disposition model with first order absorption and absorption lag time was selected to describe the pharmacokinetic time profile for each patient. The between patient variability was described by exponential random effects on each pharmacokinetic parameter, with all parameters assumed to be independent between individuals. The residual error model combined the additive and proportional error terms. The estimated pharmacokinetic parameters for each patient were used to generate each patient's PK profile as an input to the pharmacodynamic model.
For the Pharmacodynamic response, SPR, an Emax model was fitted on the logit transformed scale:
where Base is the baseline SPR on the logit scale, Emax is the maximum reduction in SPR on the logit scale, EC50 is the concentration at which the 50% of the maximum reduction is obtained and C is C-7 concentration. For each patient, the PD parameters for the three eye conditions, eyes closure, eyes closed and eyes open, were estimated separately but with a common additive residual variance on the logit scale. The PD parameter estimates were highly variable across the 13 patients, with the estimation having trouble identifying Emax and EC50 (see Table 6 below).

[1] = PK of concomitant AEDs on co-administration of C-7; format: in vivo, human; conditions: C-7 on Day 2; AED PK profiles Day 1 vs Days 2 and 3
Experimental: Similar AEDs concentration-time profiles were observed on Days 1, 2 and 3 for each patient. Two of the patients in Cohort I were also enrolled in Cohort II. Their lamotrigine PK profiles were similar in the 2 treatment periods. These observations confirm stable pre-existing treatment for all the patients.
AED concentrations were listed and summarized; analysis of level of exposure of AED(s) taken by the patient was performed on an ad-hoc basis as it depended on specifics of the AED.

mouse = assay: Oral bioavailability: in vivo orally active (audiogenic mouse test and/or MES test)
Experimental: The oral bioavailability was tested using the audiogenic mouse test (Audiogenic seizures, R. L. Collins; Chapter 14, pages: 347-372. In: Experimental Models of Epilepsy; By: Pupura, Penry, Tower, Woodbury, Walter, Raven Press, New York, 1972. Standard Book Number: 0-911216-26-X) and/or the MES test.

Structure (SMILES): CC(C)c1cc2[nH]c(=O)n(NS(C)(=O)=O)c(=O)c2cc1-c1ccnn1C [Compound C-7, N-[7-Isopropyl-6-(2-methyl-2H-pyrazol-3-yl)-2,4-dioxo-1,4-dihydro-2H-quinazolin-3-yl]-methanesulfonamide]
- EC50 (patients with PSE; eyes closed): 3.75 µg/mL (≈ 9.93 µM)
- EC50 (patients with PSE; eyes closures): 2.25 µg/mL (≈ 5.97 µM)
- EC50 (patients with PSE; eyes open): 2.96 µg/mL (≈ 7.85 µM)
- EC50 (C-7 concentration at 50% of the maximum reduction in SPR) (patients with PSE; eyes closed): 0.219 µg/mL and 0.005 µg/mL and 1.17 µg/mL and 0.31 µg/mL and 2.04 µg/mL and 0.229 µg/mL and 9.9 µg/mL and 2.08 µg/mL and 9.2 µg/mL
- Emax (maximum reduction in SPR on the logit scale) (patients with PSE; eyes closed): 0.963 and 2.54 and 1.79 and 2.47 and 6.99 and 0.58 and 0.05 and 30.9 and 49.5 (3×) and 0.487
- mean (SD) Emax on the logit scale (patients with PSE; eyes closed): 16.3 (21.7)
- EC50 (C-7 concentration at 50% of the maximum reduction in SPR) (patients with PSE; eyes closure): 1.69 µg/mL and 9.9 µg/mL and 0.32 µg/mL and 0.788 µg/mL and 1.27 µg/mL and 0.005 µg/mL and 0.01 µg/mL and 0.814 µg/mL and 1.41 µg/mL and 3.08 µg/mL and 0.0833 µg/mL
- Emax (maximum reduction in SPR on the logit scale) (patients with PSE; eyes closure): 2.38 and 41.5 and 0.571 and 49.5 (2×) and 3.25 and 2.39 and 0.05 (2×) and 9.23 and 1.31 and 7.67 and 0.495
- mean (SD) Emax on the logit scale (patients with PSE; eyes closures): 12.9 (19.6)
- EC50 (C-7 concentration at 50% of the maximum reduction in SPR) (patients with PSE; eyes open): 1.47 µg/mL and 9.9 µg/mL and 0.629 µg/mL and 0.131 µg/mL and 0.005 µg/mL and 0.137 µg/mL and 1.61 µg/mL and 1.88 µg/mL
- Emax (maximum reduction in SPR on the logit scale) (patients with PSE; eyes open): 1.14 and 40.8 and 1.03 and 49.5 (4×) and 14.5 and 1.29 and 0.05 (2×) and 2.66
- mean (SD) Emax on the logit scale (patients with PSE; eyes open): 21.6 (23.5)
- effect of co-administration of C-7 on the AED PK [1]: did not seem to affect the AED PK; also recorded: did not seem to affect the PK of selected AEDs; also recorded: did not appear to affect the AED PK
- In vivo orally active (mouse): Yes
